Measurements reported in patent publication US9884048B2, “ERK inhibitors” (Merck Sharp & Dohme Corp., priority 2014, dated 2018).

The compounds below were run against phosphorylated active hERK2 enzyme (Homo sapiens (Human), UniProt P28482). Settings: not given.
Chain of phosphorylated active hERK2 enzyme (P28482 whole entry): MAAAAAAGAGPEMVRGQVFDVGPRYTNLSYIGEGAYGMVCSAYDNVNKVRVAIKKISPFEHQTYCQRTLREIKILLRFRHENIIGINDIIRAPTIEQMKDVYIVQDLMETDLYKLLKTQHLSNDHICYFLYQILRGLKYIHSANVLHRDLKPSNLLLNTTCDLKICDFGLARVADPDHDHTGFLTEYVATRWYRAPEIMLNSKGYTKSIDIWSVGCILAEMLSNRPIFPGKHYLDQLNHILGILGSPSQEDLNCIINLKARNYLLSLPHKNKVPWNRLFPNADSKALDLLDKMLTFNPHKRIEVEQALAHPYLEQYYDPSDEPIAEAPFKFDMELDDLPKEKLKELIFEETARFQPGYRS

| IC50 | Structure (SMILES) |
| --- | --- |
| 122 nM | CO[C@H]1CCCC[C@@H]1NC(=O)Nc1cc2cnn(-c3ccnc(C)c3)c2cn1 (racemic) [Example 145, Racemic 1-[(1S,2S) and (1R,2R)-2-methoxycyclohexyl]-3-[1-(2-methylpyridin-4-yl)-1H-pyrazolo[3,4-c]pyridin-5-yl)urea] |

Same assay, conditions: ERK2 IC50, IMAP-FP assay; 0.5 nM hERK2, 30 μM ATP; 10 point titration, 3 μM starting concentration

| IC50 | Structure (SMILES) |
| --- | --- |
| 65.7 nM | Cc1cc(-n2ncc3cc(NC(=O)N[C@H]4CCCC[C@@H]4c4ccccc4)ncc32)ccn1 (racemic) [Example 169, Racemic trans 1-[1-(2-methylpyridin-4-yl)-1H-pyrazolo[3,4-c]pyridin-5-yl]-3-[(1S,2R) and (1R,2S)-2-phenylcyclohexyl]urea] |

Same assay, conditions: read-out: ERK2 IC50; IMAP-FP assay; 0.5 nM hERK2, 30 μM ATP; 10 point titration, 3 μM starting concentration

| IC50 | Structure (SMILES) |
| --- | --- |
| 4.35 nM | Cc1cc(-n2ncc3cc(NC(=O)NC4CCN(Cc5ccccc5C#N)C4)ncc32)ccn1 (stereo not shown) [Example 280, 1-[1-(2-cyanobenzyl)pyrrolidin-3-yl]-3-[1-(2-methylpyridin-4-yl)-1H-pyrazolo[3,4-c]pyridin-5-yl]urea] |
| 13.3 nM | Cc1cc(-n2ncc3cc(NC(=O)NCc4cccc(-c5ncco5)c4)ncc32)ccn1 [Example 94, 1-[1-(2-methylpyridin-4-yl)-1H-pyrazolo[3,4-c]pyridin-5-yl]-3-[3-(1,3-oxazol-2-yl)benzyl]urea] |
| 0.823 nM | Cc1cc(-n2ncc3cc(NC(=O)NC4CN(C)CC4c4ccccc4)ncc32)ccn1 (stereo not shown) [Example 57, 1-(1-methyl-4-phenylpyrrolidin-3-yl)-3-[1-(2-methylpyridin-4-yl)-1H-pyrazolo[3,4-c]pyridin-5-yl]urea] |
| 196 nM | Cc1cc(-n2ncc3cc(NC(=O)NC4CCC(c5ccc(F)cc5)C4)ncc32)ccn1 (stereo not shown) [Example 170, 1-[3-(4-fluorophenyl)cyclopentyl]-3-[1-(2-methylpyridin-4-yl)-1H-pyrazolo[3,4-c]pyridin-5-yl]urea] |
| 140 nM | Cc1cc(-n2ncc3cc(NC(=O)N[C@H]4CN(C)C[C@@H]4[C@@H]4CCCOC4)ncc32)ccn1 [Example 24, 1-[1-(2-methylpyridin-4-yl)-1H-pyrazolo[3,4-c]pyridin-5-yl]-3-{(3R,4S)-1-methyl-4-[(3S)-tetrahydro-2H-pyran-3-yl]pyrrolidin-3-yl}urea] |
| 11.1 nM | COCc1nc(NC(=O)N[C@H](C)c2ccccc2)cc2cnn(-c3ccnc(C)c3)c12 [Example 247, 1-[7-(methoxymethyl)-1-(2-methylpyridin-4-yl)-1H-pyrazolo[3,4-c]pyridin-5-yl]-3-[(1R)-1-phenylethyl]urea] |
| 4.05 nM | Cc1cc(-n2ncc3cc(NC(=O)NCc4ccc(F)c(Cl)c4)ncc32)ccn1 [Example 214, 1-(3-chloro-4-fluorobenzyl)-3-[1-(2-methylpyridin-4-yl)-1H-pyrazolo[3,4-c]pyridin-5-yl]urea] |
| 1520 nM | COCCCn1ncc2cc(NC(=O)N[C@H](C)c3ccccc3)ncc21 [Example 235, 1-[1-(3-methoxypropyl)-1H-pyrazolo[3,4-c]pyridin-5-yl]-3-[(1R)-1-phenylethyl]urea] |
| 48.7 nM | Cc1cc(-n2ncc3cc(NC(=O)N[C@@H]4CN(C)C[C@H]4c4cccnc4)ncc32)ccn1 [Example 112, 1-[1-(2-methylpyridin-4-yl)-1H-pyrazolo[3,4-c]pyridin-5-yl]-3-[(3S,4R)-1-methyl-4-pyridin-3-ylpyrrolidin-3-yl)urea] |
| 456 nM | Cc1cc(-n2ncc3cc(NC(=O)NC4CCNC4)ncc32)ccn1 (stereo not shown) [Example 133, 1-[1-(2-methylpyridin-4-yl)-1H-pyrazolo[3,4-c]pyridin-5-yl]-3-pyrrolidin-3-ylurea] |
| 46.3 nM | Cc1cc(-n2ncc3cc(NC(=O)NCCC(F)(F)F)ncc32)ccn1 [Example 88, 1-[1-(2-methylpyridin-4-yl)-1H-pyrazolo[3,4-c]pyridin-5-yl]-3-(3,3,3-trifluoropropyl)urea] |
| 2.49 nM | Cc1cc(-n2ncc3cc(NC(=O)NC(c4ccccc4)C4CCCO4)ncc32)ccn1 (stereo not shown) [Example 159, 1-[1-(2-methylpyridin-4-yl)-1H-pyrazolo[3,4-c]pyridin-5-yl]-3-[phenyl(tetrahydrofuran-2-yl)methyl]urea] |
| 143 nM | C[C@@H](NC(=O)Nc1cc2cnn(CC3COC3)c2c(CO)n1)c1ccccc1 [Example 315, 1-[7-(hydroxymethyl)-1-(oxetan-3-ylmethyl)-1H-pyrazolo[3,4-c]pyridin-5-yl]-3-[(1R)-1-phenylethyl]urea] |
| 16.2 nM | O=C(NCCc1ccccc1)Nc1cc2cnn(-c3ccncc3)c2cn1 [Example 8, 1-(2-phenylethyl)-3-(1-pyridin-4-yl-1H-pyrazolo[3,4-c]pyridin-5-yl)urea] |
| 275 nM | Cc1cc(-n2ncc3cc(NC(=O)N[C@@H]4C[C@H](C)N(C)C4)ncc32)ccn1 [Example 26, 1-[(3R,5S)-1,5-dimethylpyrrolidin-3-yl]-3-[1-(2-methylpyridin-4-yl)-1H-pyrazolo[3,4-c]pyridin-5-yl]urea] |
| 7.61 nM | Cc1cc(-n2ncc3cc(NC(=O)NC4CCCN(c5ccccc5)C4)ncc32)ccn1 (stereo not shown) [Example 82, 1H-pyrazolo[3,4-c]pyridin-1-[1-(2-methylpyridin-4-yl)-5-yl]-3-(1-phenylpiperidin-3-yl)urea] |
| 3.6 nM | Cc1cc(-n2ncc3cc(NC(=O)N[C@H]4CN(C5CCC5)C[C@@H]4c4ccccc4)ncc32)ccn1 [Example 195, 1-[(3R,4S)-1-cyclobutyl-4-phenylpyrrolidin-3-yl]-3-[1-(2-methylpyridin-4-yl)-1H-pyrazolo[3,4-c]pyridin-5-yl]urea] |
| 158 nM | C[C@@H](NC(=O)Nc1cc2cnn(CC3CCOC3)c2c(CO)n1)c1ccccc1 (stereo partly drawn) [Example 311, 1-[7-(hydroxymethyl)-1-(tetra-hydrofuran-3-ylmethyl)-1H-pyrazolo[3,4-c]pyridin-5-yl]-3-[(1R)-1-phenylethyl]urea] |
| 1.14 nM | Cc1cc(-n2ncc3cc(NC(=O)N[C@@H]4CN(C)C(C)(C)[C@H]4c4ccccc4C)ncc32)ccn1 [Example 103, 1-[1-(2-methylpyridin-4-yl)-1H-pyrazolo[3,4-c]pyridin-5-yl]-3-[(3S,4S)-1,5,5-trimethyl-4-(2-methylphenyl)pyrrolidin-3-yl)urea] |
| 0.997 nM | Cc1cc(-n2ncc3cc(NC(=O)NC4CCN(Cc5c(F)cccc5F)C4)ncc32)ccn1 (stereo not shown) [Example 271, 1-[1-(2,6-difluorobenzyl)pyrrolidin-3-yl]-3-[1-(2-methylpyridin-4-yl)-1H-pyrazolo[3,4-c]pyridin-5-yl]urea] |
| 1.52 nM | Cc1cc(-n2ncc3cc(NC(=O)N[C@@H]4CN(C)[C@H](C)[C@H]4c4ccccc4C)ncc32)ccn1 [Example 106, 1-[(3S,4S,5R)-1,5-dimethyl-4-(2-methylphenyl)-pyrrolidin-3-yl]-3-[1-(2-methylpyridin-4-yl)-1H-pyrazolo[3,4-c]pyridin-5-yl)urea] |
| 9.2 nM | O=C(NCCc1ccccc1F)Nc1cc2cnn(-c3ccncc3)c2cn1 [Example 40, 1-[2-(2-fluorophenyl)ethyl]-3-(1-pyridin-4-yl-1H-pyrazolo[3,4-c]pyridin-5-yl)urea] |
| 127 nM | Cc1cc(-n2ncc3cc(NC(=O)N[C@H](C)c4ccccc4)nc(COCCN4CCOCC4)c32)ccn1 [Example 249, 1-{1-(2-methylpyridin-4-yl)-7-[(2-morpholin-4-ylethoxy)methyl]-1H-pyrazolo[3,4-c]pyridin-5-yl}-3-[(1R)-1-phenylethyl]urea] |
